From paper PMC7224190, “Pharmacological inhibition of PRMT7 links arginine monomethylation to the cellular stress response” (Nature Communications, 2020)

Assays:
[1] = biological target: T1, PRMT7 (Homo sapiens, UniProt Q9NVM4); experiment: radiometric SPA methyltransferase assay (negative control compound, weak); assay type: biochemical
T1 sequence (Q9NVM4 1-692): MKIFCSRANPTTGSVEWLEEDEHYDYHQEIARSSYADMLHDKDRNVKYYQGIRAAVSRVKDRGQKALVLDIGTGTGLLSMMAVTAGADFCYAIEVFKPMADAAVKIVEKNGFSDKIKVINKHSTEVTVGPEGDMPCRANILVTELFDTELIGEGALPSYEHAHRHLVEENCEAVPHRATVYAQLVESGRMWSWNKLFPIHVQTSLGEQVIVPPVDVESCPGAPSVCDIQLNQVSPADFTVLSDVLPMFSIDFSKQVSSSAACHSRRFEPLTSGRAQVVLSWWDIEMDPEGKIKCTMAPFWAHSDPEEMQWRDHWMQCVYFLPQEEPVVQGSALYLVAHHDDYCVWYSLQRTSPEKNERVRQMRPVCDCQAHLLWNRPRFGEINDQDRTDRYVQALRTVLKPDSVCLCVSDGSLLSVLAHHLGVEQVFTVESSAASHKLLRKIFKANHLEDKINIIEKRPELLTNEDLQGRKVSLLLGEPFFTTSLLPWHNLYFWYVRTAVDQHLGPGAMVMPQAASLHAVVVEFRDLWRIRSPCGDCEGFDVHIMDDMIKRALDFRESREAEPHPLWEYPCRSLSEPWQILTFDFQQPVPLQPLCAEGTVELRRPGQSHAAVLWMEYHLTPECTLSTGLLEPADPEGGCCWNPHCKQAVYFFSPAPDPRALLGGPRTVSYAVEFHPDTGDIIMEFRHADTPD

[2] = biological target: T1, PRMT7; experiment: SPR kinetics (Biacore T200); also radiometric SPA IC50 […]; assay type: binding; design: Bio-PRMT7 (amino acids 1–692)
[3] = biological target: PRMT6 (Homo sapiens, UniProt Q96LA8); experiment: biochemical; design: radiometric methyltransferase assay with tritiated SAM, IC50
[4] = biological target: T2, BCDIN3D (Homo sapiens, UniProt Q7Z5W3); experiment: biochemical; design: radiometric methyltransferase assay with tritiated SAM, IC50
T2 sequence (Q7Z5W3 1-292): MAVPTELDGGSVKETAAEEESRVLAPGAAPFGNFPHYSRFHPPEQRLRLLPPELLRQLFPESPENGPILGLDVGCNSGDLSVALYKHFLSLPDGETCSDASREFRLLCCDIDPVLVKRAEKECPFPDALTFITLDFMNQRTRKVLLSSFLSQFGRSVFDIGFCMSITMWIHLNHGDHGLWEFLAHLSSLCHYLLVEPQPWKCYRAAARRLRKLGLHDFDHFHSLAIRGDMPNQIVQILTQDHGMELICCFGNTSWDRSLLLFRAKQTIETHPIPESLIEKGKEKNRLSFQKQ

[5] = biological target: PRMT1 (Homo sapiens, UniProt Q99873); experiment: biochemical; design: radiometric methyltransferase assay with tritiated SAM, IC50
[6] = biological target: DOT1L (Homo sapiens, UniProt Q8TEK3); experiment: biochemical; design: radiometric methyltransferase assay with tritiated SAM, IC50
[7] = biological target: T3, PRMT9 (Homo sapiens, UniProt Q6P2P2); experiment: biochemical; design: radiometric methyltransferase assay with tritiated SAM, IC50
T3 sequence (Q6P2P2 1-845): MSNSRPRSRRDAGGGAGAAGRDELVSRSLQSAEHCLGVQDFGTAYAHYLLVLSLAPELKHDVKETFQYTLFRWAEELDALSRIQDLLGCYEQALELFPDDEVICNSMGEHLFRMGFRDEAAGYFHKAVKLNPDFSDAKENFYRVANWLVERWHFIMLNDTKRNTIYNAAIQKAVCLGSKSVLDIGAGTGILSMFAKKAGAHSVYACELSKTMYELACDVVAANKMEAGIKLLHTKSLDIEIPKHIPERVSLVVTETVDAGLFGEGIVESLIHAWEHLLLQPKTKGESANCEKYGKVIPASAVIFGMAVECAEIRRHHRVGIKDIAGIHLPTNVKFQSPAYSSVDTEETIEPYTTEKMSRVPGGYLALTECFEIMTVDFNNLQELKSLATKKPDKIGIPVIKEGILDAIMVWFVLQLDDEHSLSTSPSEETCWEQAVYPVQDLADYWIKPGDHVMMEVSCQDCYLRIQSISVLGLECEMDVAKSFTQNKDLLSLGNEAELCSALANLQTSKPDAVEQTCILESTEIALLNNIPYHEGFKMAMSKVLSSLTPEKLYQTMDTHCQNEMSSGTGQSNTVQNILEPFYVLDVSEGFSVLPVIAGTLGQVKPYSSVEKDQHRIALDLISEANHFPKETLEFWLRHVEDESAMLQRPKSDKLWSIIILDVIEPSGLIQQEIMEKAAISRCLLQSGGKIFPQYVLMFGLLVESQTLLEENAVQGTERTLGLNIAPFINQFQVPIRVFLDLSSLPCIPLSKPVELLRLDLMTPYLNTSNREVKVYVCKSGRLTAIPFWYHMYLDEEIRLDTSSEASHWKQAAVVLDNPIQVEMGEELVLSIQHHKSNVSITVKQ

Sequence of PRMT1 (Q99873 whole entry): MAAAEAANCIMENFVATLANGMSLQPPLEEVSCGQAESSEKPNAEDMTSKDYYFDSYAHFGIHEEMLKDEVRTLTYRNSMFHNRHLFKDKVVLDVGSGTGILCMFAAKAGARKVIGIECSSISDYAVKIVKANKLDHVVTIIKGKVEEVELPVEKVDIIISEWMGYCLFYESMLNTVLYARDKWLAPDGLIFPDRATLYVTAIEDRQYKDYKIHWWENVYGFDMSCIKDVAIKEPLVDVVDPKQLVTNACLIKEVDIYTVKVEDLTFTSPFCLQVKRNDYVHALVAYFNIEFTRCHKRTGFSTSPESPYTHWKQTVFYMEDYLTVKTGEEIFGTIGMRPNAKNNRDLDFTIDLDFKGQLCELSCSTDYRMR
Sequence of DOT1L (Q8TEK3 whole entry): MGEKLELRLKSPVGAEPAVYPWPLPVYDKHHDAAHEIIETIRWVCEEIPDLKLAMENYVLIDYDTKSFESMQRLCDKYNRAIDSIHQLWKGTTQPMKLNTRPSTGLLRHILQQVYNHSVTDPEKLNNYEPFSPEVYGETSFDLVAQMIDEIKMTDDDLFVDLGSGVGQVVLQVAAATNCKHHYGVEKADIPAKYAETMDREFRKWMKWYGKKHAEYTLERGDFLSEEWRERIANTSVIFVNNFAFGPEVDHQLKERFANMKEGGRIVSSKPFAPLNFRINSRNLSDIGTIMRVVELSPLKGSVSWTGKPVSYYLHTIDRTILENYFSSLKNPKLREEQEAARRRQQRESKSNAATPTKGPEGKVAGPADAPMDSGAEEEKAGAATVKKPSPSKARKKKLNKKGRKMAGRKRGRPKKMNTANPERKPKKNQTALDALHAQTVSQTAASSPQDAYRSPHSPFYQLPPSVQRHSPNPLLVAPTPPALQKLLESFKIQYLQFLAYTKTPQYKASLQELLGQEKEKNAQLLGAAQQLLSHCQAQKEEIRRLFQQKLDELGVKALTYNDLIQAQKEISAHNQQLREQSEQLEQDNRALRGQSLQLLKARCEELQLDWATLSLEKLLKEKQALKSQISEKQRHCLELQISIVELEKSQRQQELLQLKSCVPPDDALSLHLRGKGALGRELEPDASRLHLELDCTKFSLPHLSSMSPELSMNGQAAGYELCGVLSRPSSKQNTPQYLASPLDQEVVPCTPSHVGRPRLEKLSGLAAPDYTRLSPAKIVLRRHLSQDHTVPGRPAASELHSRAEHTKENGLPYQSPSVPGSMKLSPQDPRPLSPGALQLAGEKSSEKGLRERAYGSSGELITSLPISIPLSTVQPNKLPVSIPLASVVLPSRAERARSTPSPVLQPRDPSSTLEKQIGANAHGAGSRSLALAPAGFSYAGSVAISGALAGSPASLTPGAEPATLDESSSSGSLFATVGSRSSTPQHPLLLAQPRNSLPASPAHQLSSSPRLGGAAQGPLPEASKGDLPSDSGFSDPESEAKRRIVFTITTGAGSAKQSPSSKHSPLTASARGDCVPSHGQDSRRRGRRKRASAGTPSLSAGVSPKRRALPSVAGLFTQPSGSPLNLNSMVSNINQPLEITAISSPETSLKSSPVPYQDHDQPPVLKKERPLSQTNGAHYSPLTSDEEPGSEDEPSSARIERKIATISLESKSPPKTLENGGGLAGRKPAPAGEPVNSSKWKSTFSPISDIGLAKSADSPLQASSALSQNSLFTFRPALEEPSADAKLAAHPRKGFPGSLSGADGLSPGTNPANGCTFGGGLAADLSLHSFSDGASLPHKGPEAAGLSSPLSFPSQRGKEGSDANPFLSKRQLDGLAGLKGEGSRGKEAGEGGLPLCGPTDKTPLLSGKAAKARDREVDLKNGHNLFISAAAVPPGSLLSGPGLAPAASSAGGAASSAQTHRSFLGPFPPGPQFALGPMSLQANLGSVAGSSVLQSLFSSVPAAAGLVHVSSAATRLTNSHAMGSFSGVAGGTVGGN
Sequence of PRMT6 (Q96LA8 whole entry): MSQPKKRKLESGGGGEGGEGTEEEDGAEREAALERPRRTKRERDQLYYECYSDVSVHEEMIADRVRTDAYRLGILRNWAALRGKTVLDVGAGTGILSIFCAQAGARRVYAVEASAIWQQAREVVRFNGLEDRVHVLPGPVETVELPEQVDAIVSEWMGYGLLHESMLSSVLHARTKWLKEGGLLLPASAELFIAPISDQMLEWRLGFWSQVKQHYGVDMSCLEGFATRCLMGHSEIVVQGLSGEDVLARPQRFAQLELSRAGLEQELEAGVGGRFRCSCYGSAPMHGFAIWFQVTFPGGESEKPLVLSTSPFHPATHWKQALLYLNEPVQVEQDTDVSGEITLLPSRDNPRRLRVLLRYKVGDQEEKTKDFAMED

| SMILES | IC50 [1] | Kd [2] | IC50 [3] | IC50 [4] | IC50 [5] | IC50 [6] | IC50 [7] |
| --- | --- | --- | --- | --- | --- | --- | --- |
| CC1(C)O[C@@H]2[C@H](O1)[C@@H](CSCCCCNCc1cccc(-c3ccc(Cl)cc3)c1)O[C@H]2n1cnc2c(N)ncnc21 [SGC8158N] | 14000 ± 2000 nM |  |  |  |  |  |  |
| Nc1ncnc2c1ncn2[C@@H]1O[C@H](CSCCCCNCc2cccc(-c3ccc(Cl)cc3)c2)[C@@H](O)[C@H]1O [SGC8158] |  | 6.4 ± 1.2 nM | 15000 nM | 1100 nM | 12000 nM | 1700 nM | 160 nM |
